According to patent publication US11560391B2, “Sulfonylurea compounds as inhibitors of interleukin-1 activity” (Genentech, Inc., priority 2018, dated 2023):
pIC50: −log10 of the molar value. Where two headings read alike, the source gives them in different places.

Assays:
[1] = target: T1, NLRP3 inflammasome (Homo sapiens, UniProt Q96P20); experiment: NLRP3 inflammasome activation assay in LPS-primed, nigericin-stimulated PBMCs, IL-1β release; format: cell-based; settings: 10 μM nigericin; for IC50: LPS 100 ng/mL priming, read-out: IL-1B pIC50 (converted); for pIC50: PBMC, LPS priming, read-out: PMBC IL-1β IC50
T1 construct: freshly isolated from human peripheral blood from healthy donors; StemCells Technologies; host or cells: primary human PBMCs
T1 sequence (Q96P20 whole entry): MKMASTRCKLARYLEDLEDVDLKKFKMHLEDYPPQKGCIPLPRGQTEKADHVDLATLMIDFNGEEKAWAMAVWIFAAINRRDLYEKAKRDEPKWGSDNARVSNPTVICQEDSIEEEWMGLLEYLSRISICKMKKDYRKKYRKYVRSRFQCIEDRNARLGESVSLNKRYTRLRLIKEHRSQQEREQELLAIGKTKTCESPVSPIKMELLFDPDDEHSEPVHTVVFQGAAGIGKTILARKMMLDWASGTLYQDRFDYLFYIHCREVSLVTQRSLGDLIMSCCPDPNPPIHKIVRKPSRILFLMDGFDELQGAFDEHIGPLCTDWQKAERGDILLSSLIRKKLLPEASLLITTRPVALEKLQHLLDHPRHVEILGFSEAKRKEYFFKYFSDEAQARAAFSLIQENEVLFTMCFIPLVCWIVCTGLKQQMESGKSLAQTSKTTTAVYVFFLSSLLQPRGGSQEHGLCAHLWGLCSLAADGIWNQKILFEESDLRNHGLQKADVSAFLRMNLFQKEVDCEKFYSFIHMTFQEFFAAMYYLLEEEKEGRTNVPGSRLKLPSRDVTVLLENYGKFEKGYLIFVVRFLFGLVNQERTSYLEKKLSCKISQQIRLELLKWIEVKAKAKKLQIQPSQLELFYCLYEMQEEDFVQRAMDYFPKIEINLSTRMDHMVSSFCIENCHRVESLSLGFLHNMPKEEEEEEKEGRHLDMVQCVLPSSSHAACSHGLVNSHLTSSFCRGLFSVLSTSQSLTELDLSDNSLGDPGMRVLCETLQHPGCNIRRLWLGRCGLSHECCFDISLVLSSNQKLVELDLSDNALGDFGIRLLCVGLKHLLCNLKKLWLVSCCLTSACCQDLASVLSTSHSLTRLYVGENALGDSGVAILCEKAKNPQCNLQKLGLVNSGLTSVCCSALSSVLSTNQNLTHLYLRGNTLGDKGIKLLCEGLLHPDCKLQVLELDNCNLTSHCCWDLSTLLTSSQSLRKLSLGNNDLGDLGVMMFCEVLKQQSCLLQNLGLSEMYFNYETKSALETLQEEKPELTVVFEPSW
Procedure: Some of the following assays were used to determine the inhibitory activity of the compounds on the NLRP3 inflammasome using a common inflammasome activation stimuli-nigericin.
(§1) Human peripheral blood mononuclear cells (PBMCs), consisting of lymphocytes (T, B and NK cells), monocytes and dendritic cells, are freshly isolated from human peripheral blood from healthy donors. Cells are obtained through an IRB approved donor program by iXCells Biotechnologies where all the donors are tested for bacterial and viral infections. Cells are purified from peripheral blood using ficoll gradient centrifugation.
(§2) Fresh or cryopreserved PMBCs are seeded in V-bottom 96-well plate at 0.5-1×10^5 cells per well and incubated overnight at 37° C. with 5% CO2 in RPMI 1640 medium with GlutaMAX supplement, 4.5 g/L D-glucose, 10% Fetal Bovine Serum (FBS), […] Sodium Pyruvate, 1% Penicillin/Streptomycin, 10 mM HEPES and 0.05 mM of […]. Freshly isolated or cryopreserved KCs cells are seeded in flat-bottom 96-well plates at 0.6-1.5×10^5 cells/well and incubated overnight at 37° C., 5% CO2 in RPMI 1640 Medium with GlutaMAX supplement, FBS, 1% Penicillin/Streptomycin and 10 mM HEPES. The following day, the cells are primed with 100 ng/mL of lipopolysaccharides (LPS; Sigma Aldrich) in FBS-free RPMI 1640 for 3 h. After the priming step, the media is removed and PBMCs are pre-incubated with serial concentrations of test compounds (0.00017-10 uM) or vehicle (DMSO) for 30 min in FBS-free media prior to addition of the NLRP3 activator. Cells are then stimulated with 10 μM Nigericin (Sigma Aldrich; InvivoGen) for 1.5 h. Plates were centrifuged at 1,500 rpm for 3 minutes to pellet cells and supernatant was transferred into new plates for subsequent experiments.
For ELISA assays cells are seeded into 96-well plates. Post study, supernatants are removed and the levels of mature IL-1β, IL18 and TNFα (Quantikine ELISA, R&D systems) are measured in cell conditioned media by ELISA according to manufacturer's instructions.
Human frozen PBMCs were purchased from StemCells Technologies. Cells were rapidly thawed in 37° C. water bath and resuspended in fresh assay media consisting of RPMI 1640 Medium containing 1% sodium pyruvate, 10 mM HEPES, 2.5 g/L glucose and 55 μM 2-Mercaptoethanol. Cell density was adjusted to 8.1×10^5 cells/mL. Cells were primed by adding lipopolysaccharide (Invivogen Ultrapure lipopolysaccharide from E. coli, tlrl-3pelps) at a final concentration of 100 ng/mL in cell suspension. 37 μL of cell suspension with LPS was seeded per well of a 384 well plate and incubated for 3 hours at 37° C. and 5% CO2. After priming, PBMCs were preincubated with serially diluted test compounds with starting concentration of 40 μM followed by 2-fold dilution for a 20-point curve or vehicle (DMSO) for 30 min in assay media at 37° C. and 5% CO2. Cells were then stimulated with 10 μM nigericin (Invivogen, tlrl-nig-5) for 90 min at 37° C. and 5% CO2 to activate NLRP3 dependent inflammasome pathway and IL-1β release in cell culture supernatant. Cells were centrifuged at 1200 RPM for 1 min and 40 μL of supernatant was transferred into fresh plates and stored at −80° C. until IL-1β analysis.
16 μL of supernatant was added to white 384 well HTRF plates, followed by addition of 4 μL of HTRF cocktail in each well. Plates were quickly centrifuged, sealed and incubated overnight at room temperature. Next day, HTRF signal was read on a Pherastar and ratio of 665/620 was calculated based on manufacturer's protocol to obtain concentration of IL-1β in cell culture supernatant.

[2] = system: PBMCs; experiment: CTG (CellTiter-Glo) viability assay of compound-treated LPS and nigericin stimulated PBMCs; format: cell-based, human; settings: for IC50: LPS and nigericin stimulated cells, read-out: CTG pIC50 (converted); for pIC50: read-out: PMBC CTG IC50
Procedure: as §1, §2
Viability of compound treated cells is measured using CellTiter-Glo® assay (Promega, Madison, Wis.) that measures the ATP content of cells which is proportional to the number of live cells within a well. This is a counter-screen to establish that the reduction of IL-1β levels in LPS and nigericin stimulated and compound treated cells is not due to cytotoxicity, but rather through the inhibition of the inflammasome pathway. Compounds inhibiting NRLP3 inflammasome activation ultimately increase the viability of LPS and nigericin stimulated cells by blocking NLRP3 mediated pyroptosis that would otherwise lead to cell lysis.

Compound	IC50 [1]	pIC50 [1]	IC50 ([2]; Homo sapiens, PBMC)	pIC50 ([2]; Homo sapiens, PBMC)	IC50 [2]
COc1cc(C(C)C)c(NC(=O)NS(=O)(=O)c2cnn3c2OCC(CNC(C)=O)C3)c(C(C)C)n1 (stereo not drawn)	1000 to 10000 nM	–	1000 to 10000 nM	–	–
CC(C)c1ccnc(C(C)C)c1NC(=O)NS(=O)(=O)c1cnn2c1OCCC2 [Example 31, N-((2,4-diisopropylpyridin-3-yl)carbamoyl)-6,7-dihydro-5H-pyrazolo[5,1-b][1,3]oxazine-3-sulfonamide]	–	5.36	–	6.05	–
O=C(NC1(c2ccccc2)CC1)NS(=O)(=O)c1cnn2c1OCCC2 [Example 11, N-((1-phenylcyclopropyl)carbamoyl)-6,7-dihydro-5H-pyrazolo[5,1-b][1,3]oxazine-3-sulfonamide]	–	< 5.00	–	< 5.00	–
O=C(NC1C2CC3CC(C2)CC1C3)NS(=O)(=O)c1cnn2c1OCCC2 (stereo not drawn) [Example 3, N-(((1r,3r,5r,7r)-adamantan-2-yl)carbamoyl)-6,7-dihydro-5H-pyrazolo[5,1-b][1,3]oxazine-3-sulfonamide]	–	5.68	–	< 5.00	–
COc1cc(C(C)C)c(NC(=O)NS(=O)(=O)c2cnn3c2OC[C@@H](OC)C3)c(C(C)C)n1 [Example 37a, Sodium (S)—N-((2,4-diisopropyl-6-methoxypyridin-3-yl)carbamoyl)-6-methoxy-6,7-dihydro-5H-pyrazolo[5,1-b][1,3]oxazine-3-sulfonamide]	–	6.26	–	6.22	–
CC(C)c1cncc(C(C)C)c1NC(=O)NS(=O)(=O)c1cnn2c1OCCC2 [Example 28, N-((3,5-diisopropylpyridin-4-yl)carbamoyl)-6,7-dihydro-5H-pyrazolo[5,1-b][1,3]oxazine-3-sulfonamide]	–	5.75	–	7.16	–
Cc1onc(-c2ccccc2)c1NC(=O)NS(=O)(=O)c1cnn2c1OCCC2 [drawing 373]	> 10000 nM	–	> 10000 nM	–	–
CC(C)c1cc(C2CC2)nc(C(C)C)c1NC(=O)NS(=O)(=O)c1cnn2c1OCCC2 [Example 45, N-((6-cyclopropyl-2,4-diisopropylpyridin-3-yl)carbamoyl)-6,7-dihydro-5H-pyrazolo[5,1-b][1,3]oxazine-3-sulfonamide]	–	6.04	–	6.43	–
CC(C)n1nc2c(c1NC(=O)NS(=O)(=O)c1cnn3c1OCCC3)CCC2 [Example 44, N-((2-isopropyl-2,4,5,6-tetrahydrocyclopenta[c]pyrazol-3-yl)carbamoyl)-6,7-dihydro-5H-pyrazolo[5,1-b][1,3]oxazine-3-sulfonamide]	–	5.91	–	< 5.00	–
CC(C)c1cc(Cl)nc(C(C)C)c1NC(=O)NS(=O)(=O)c1cnn2c1OCCC2 [Example 32, N-((6-chloro-2,4-diisopropylpyridin-3-yl)carbamoyl)-6,7-dihydro-5H-pyrazolo[5,1-b][1,3]oxazine-3-sulfonamide]	–	6.23	–	6.04	–
O=C(NC1C2CC3CC(C2)C1C3)NS(=O)(=O)c1cnn2c1OCCC2 (stereo not drawn)	1000 to 10000 nM	–	> 10000 nM	–	–
O=C(NC1(c2ccccc2)CC1)NS(=O)(=O)c1cnn2c1OCCC2 [drawing 376]	> 10000 nM	–	> 10000 nM	–	–
CC(C)c1cc(N(C)C)nc(C(C)C)c1NC(=O)NS(=O)(=O)c1cnn2c1OCCC2 [Example 51, Sodium N-((6-(dimethylamino)-2,4-diisopropylpyridin-3-yl)carbamoyl)-6,7-dihydro-5H-pyrazolo[5,1-b][1,3]oxazine-3-sulfonamide]	–	5.68	–	5.95	–
C=C(C)c1cncc(C(=C)C)c1NC(=O)NS(=O)(=O)c1cnn2c1OCCC2 [Example 27, N-((3,5-di(prop-1-en-2-yl)pyridin-4-yl)carbamoyl)-6,7-dihydro-5H-pyrazolo[5,1-b][1,3]oxazine-3-sulfonamide]	–	< 5.00	–	–	–
CC1(C)COc2c(S(=O)(=O)NC(=O)NC3CCCCc4ccccc43)cnn2C1 (stereo not drawn) [Example 46, 6,6-dimethyl-N-((6,7,8,9-tetrahydro-5H-benzo[7]annulen-5-yl)carbamoyl)-6,7-dihydro-5H-pyrazolo[5,1-b][1,3]oxazine-3-sulfonamide]	–	< 5.00	–	–	–

Continued, in another order:

IC50 [1]	pIC50 [1]	Compound	IC50 ([2]; Homo sapiens, PBMC)	pIC50 ([2]; Homo sapiens, PBMC)	IC50 [2]
1000 to 10000 nM	–	CCOc1cc(C(C)C)c(NC(=O)NS(=O)(=O)c2cnn3c2OCCC3)c(C(C)C)n1 [drawing 417]	1000 to 10000 nM	–	–
100 to 1000 nM	–	CN[C@@H]1COc2c(S(=O)(=O)NC(=O)Nc3c(C(C)C)cc(OC)nc3C(C)C)cnn2C1 [drawing 408]	< 100 nM	–	–
< 100 nM	–	COc1cc(C(C)C)c(NC(=O)NS(=O)(=O)c2cnn3c2OC[C@@H](N2CC(OC)C2)C3)c(C(C)C)n1 [drawing 409]	100 to 1000 nM	–	–
1000 to 10000 nM	–	CC(C)c1cc(N(C)C)nc(C(C)C)c1NC(=O)NS(=O)(=O)c1cnn2c1OCCC2 [drawing 418]	100 to 1000 nM	–	–
1000 to 10000 nM	–	CC(C)c1ccnc(C(C)C)c1NC(=O)NS(=O)(=O)c1cnn2c1OCCC2 [drawing 398]	–	–	100 to 1000 nM
1000 to 10000 nM	–	CC(C)c1cncc(C(C)C)c1NC(=O)NS(=O)(=O)c1cnn2c1OCCC2 [drawing 394]	–	–	< 100 nM
1000 to 10000 nM	–	CC(C)c1cc(C#N)nc(C(C)C)c1NC(=O)NS(=O)(=O)c1cnn2c1OCCC2 [drawing 416]	100 to 1000 nM	–	–
100 to 1000 nM	–	COc1cc(C(C)C)c(NC(=O)NS(=O)(=O)c2cnn3c2OCCC3)c(C(C)C)n1 [drawing 396]	100 to 1000 nM	–	–
100 to 1000 nM	–	CC(C)c1nn(CC2CC2)c(C(C)C)c1NC(=O)NS(=O)(=O)c1cnn2c1OCCC2 [drawing 402]	100 to 1000 nM	–	–
1000 to 10000 nM	–	CCn1nc(C(C)C)c(NC(=O)NS(=O)(=O)c2cnn3c2OC[C@@H](OC)C3)c1C(C)C [drawing 406]	100 to 1000 nM	–	–
100 to 1000 nM	–	COc1cc(C(C)C)c(NC(=O)NS(=O)(=O)c2cnn3c2OC[C@@H](OC)C3)c(C(C)C)n1 [drawing 404]	100 to 1000 nM	–	–
100 to 1000 nM	–	CC(C)c1cc(Cl)nc(C(C)C)c1NC(=O)NS(=O)(=O)c1cnn2c1OCCC2 [drawing 399]	100 to 1000 nM	–	–
1000 to 10000 nM	–	CC(C)c1nn(C(C)C)c(C(C)C)c1NC(=O)NS(=O)(=O)c1cnn2c1OCCC2 [drawing 400]	1000 to 10000 nM	–	–
1000 to 10000 nM	–	CC(C)n1nc2c(c1NC(=O)NS(=O)(=O)c1cnn3c1OCCC3)CCC2 [drawing 411]	> 10000 nM	–	–
100 to 1000 nM	–	CC(C)c1cncc(C(C)C)c1NC(=O)NS(=O)(=O)c1cnn2c1OCCC2 [drawing 393]	100 to 1000 nM	–	–
1000 to 10000 nM	–	CO[C@@H]1COc2c(S(=O)(=O)NC(=O)Nc3c(C(C)C)nn(C)c3C(C)C)cnn2C1 [drawing 405]	100 to 1000 nM	–	–
1000 to 10000 nM	–	CCn1nc(C(C)C)c(NC(=O)NS(=O)(=O)c2cnn3c2OCCC3)c1C(C)C [drawing 401]	100 to 1000 nM	–	–
1000 to 10000 nM	–	CC(C)c1ccnc(C(C)C)c1NC(=O)NS(=O)(=O)c1cnn2c1OCCC2 [drawing 397]	–	–	1000 to 10000 nM
> 10000 nM	–	O=C(NC(c1ccccc1)c1ccccc1)NS(=O)(=O)c1cnn2c1OCCC2 [drawing 380]	–	–	–
> 10000 nM	–	O=C(Nc1nc(-c2ccccc2)cc(C(F)(F)F)n1)NS(=O)(=O)c1cnn2c1OCCC2 [drawing 382]	–	–	–
